# Tests used:
# [1] = molecular target: T1, FAAH activity of a rat brain membrane fraction (Rattus norvegicus, UniProt P97612); assay type: biochemical; settings: rat brain membrane fractions, TLC
# T1 construct: Cis-9,10-octadecenoamide with rat brain membrane fraction +1 mM phenylmethylsulfonyl fluoride (PMSF); from tissue; host or cells: rat brain membrane fraction
# T1 sequence (P97612 1-579): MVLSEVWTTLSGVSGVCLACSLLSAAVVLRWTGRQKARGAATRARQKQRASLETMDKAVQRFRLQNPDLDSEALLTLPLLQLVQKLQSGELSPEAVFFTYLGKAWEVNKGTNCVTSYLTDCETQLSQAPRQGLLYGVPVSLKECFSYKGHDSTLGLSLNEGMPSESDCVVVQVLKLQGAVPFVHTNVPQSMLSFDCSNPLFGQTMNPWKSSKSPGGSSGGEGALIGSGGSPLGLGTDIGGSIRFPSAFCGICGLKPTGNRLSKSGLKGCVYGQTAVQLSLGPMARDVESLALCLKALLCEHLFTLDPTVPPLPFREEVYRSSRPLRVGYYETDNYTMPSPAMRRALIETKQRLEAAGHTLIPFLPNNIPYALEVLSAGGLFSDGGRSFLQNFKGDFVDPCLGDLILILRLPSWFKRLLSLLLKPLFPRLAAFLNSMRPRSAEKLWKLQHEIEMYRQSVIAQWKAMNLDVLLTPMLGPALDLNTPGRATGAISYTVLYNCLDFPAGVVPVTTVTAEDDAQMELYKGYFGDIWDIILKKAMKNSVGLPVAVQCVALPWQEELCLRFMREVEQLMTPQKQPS
# Method: In each case the enzymic reaction is performed is a separate reaction vessel and the product is spotted onto a TLC plate.
# rats = assay: effect on spontaneous behavior of rats after ip injection (induction of sleep); assay type: in vivo, rat
# Method: Synthetic cis-9,10-octadecenoamide was injected (ip) into rats in order to test its effect on spontaneous behavior at different doses: 1 (n=2), 2 (n=2), 5 (n=7), 10 (n=10), 20 (n=2), and 50 (n=2) mg, where n = number of rats tested. […] However, at a threshold of 5 mg and above there was a marked effect consisting of an induction of long-lasting motor quiescence associated with eyes closed, sedated behavior characteristic of normal sleep. Also as with normal sleep, the rats still responded to auditory stimuli with orienting reflex and sustained attention toward the source of stimulation. In addition, motor behavior was impaired. The latency to behavioral sedation following administration was about 4 minutes and subjects were normally active again after 1 hour (5 mg), 2 hour (10 mg), or 2.5 hour (20 mg and 50 mg).
# We have compared cis-9,10-octadecenoamide to vehicle and the synthetic analogs listed in FIG. 1 to estimate the structural specificity of its sleep-inducing potential. […] More particularly, male Sprague-Dawley rats (300 g at the time of surgery) were implanted under halothane anesthesia (2-3%) with a standard set of electrodes for sleep recordings. This included two screw electrodes placed in the parietal bone over the hippocampus to record the subjects electroencephalogram (EEG) and two wire electrodes inserted in the neck musculature to record postural tone through electromyographic activity (EMG). Rats were housed individually with at libitum access to food and water. The dark-light cycle was controlled (12:12, lights on a 10:00 p.m.). One week after the surgery, rats were habituated to the recording conditions for at least three days. Upon the completion of the habituation period, rats received 2 milliliter (ip) of either: vehicle (5% ethanol/saline solution), cis-9,10-octadecenoamide (10 mg), or oleic acid (10 mg). […] Sleep recordings were visually scored and four stages were determined: wakefulness, slow-wave-sleep 1 (SWS1), slow-wave-sleep 2 (SWS2), and rapid eye movement (REM) sleep.
structure (smiles),measurement,setting,value
"CCCCCCCC/C=C\CCCCCCCC(N)=O [cis-9,10-octadecenoamide, Cis-9,10-octadecenoamide]","conversion of 14C-cis-9,10-octadecenoamide to oleic acid",[1],Rapid conversion
same,duration of the biological (sleep-inducing) effect,rats; 10 mg per rat,two hours
same,"threshold dose for induction of long-lasting motor quiescence with eyes closed, sedated behavior","rats; rats, ip",5 mg
same,effect on spontaneous behavior,"rats; rats, ip, lower doses 1 and 2 mg",no overt effect on spontaneous behavior

# From patent US6699682B2, “Assay for inhibitors of fatty-acid amide hydrolase” (The Scripps Research Institute, priority 1995, dated 2004)
